Measurements taken from ChEMBL document CHEMBL4265956, “Discovery of potent and selective Spleen Tyrosine Kinase inhibitors for the topical treatment of inflammatory skin disease” (Bioorg Med Chem Lett, 2018).

Columns and labels:
[1] = Drug uptake in human skin epidermal layer administered topically after 6 hrs by LC-MS/MS analysis; format: ADME, tissue-based, Skin epidermis; settings: topical_or_ocular
[2] = Drug uptake in human skin dermal layer administered topically after 6 hrs by LC-MS/MS analysis; format: ADME, tissue-based, Dermis; settings: topical_or_ocular
physchem = settings: buffer, pH 7.4
[3] = Apparent permeability of the compound after 3 hrs by PAMPA; format: ADME
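Throughout, for logD: lipophilicity determined by HPLC.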

SMILES | logD (physchem) | also measured
CC(=O)c1ccc(OCc2cc(C)ccn2)c(-c2ccc3c(c2)CCNCC3)c1 | 2.5 | Drug uptake [1]: 5.52 µg; Drug uptake [2]: 0.43 µg
COc1ccc(-c2nc(C)ccc2OCc2cccc(C)n2)cc1 | 5.5 | 
COc1ccc(-c2nc(C)ccc2OCc2cc(C)ccn2)cc1 | 5.4 | Papp at 3 h [3]: 330 nm/s
COc1ccc(-c2nc(C)ccc2OCc2ccc(C)cn2)cc1 | 5.5 | 
COc1ccc(-c2cc(OC)ccc2OCc2ccccn2)cc1 | 6 | 
COc1ccc(-c2c(F)cccc2OCc2ccccn2)cc1 | 6.2 | 
COc1ccc(-c2nc(C)ccc2OCc2ccccn2)cc1 | 5 | 
COc1ccc(-c2c(C)cccc2OCc2ccccn2)cc1 | 6.7 | 
Cc1ccnc(COc2ccc(C)nc2-c2ccc3c(c2)CCNCC3)c1 |  | Papp at 3 h [3]: 435 nm/s
CCc1ccnc(COc2ccc(C(C)=O)cc2-c2ccc3c(c2)CCNCC3)c1 | 2.8 | 
COc1ccc(-c2nc(C)ccc2OCc2ncccc2C)cc1 | 5.3 | 
COc1cccc(OCc2cc(C)ccn2)c1-c1ccc2c(c1)CCNCC2 | 3.1 | Drug uptake [1]: 9.34 µg; Drug uptake [2]: 0.38 µg
COc1ccc(-c2ccc(OC)cc2OCc2ccccn2)cc1 | 6.2 | 
COc1ccc(OCc2cc(C)ccn2)c(-c2ccc3c(c2)CCNCC3)c1 | 3 | 
COc1ccc(-c2ccccc2OCc2ccccn2)cc1 | 6.2 | 
CCOc1ccnc(COc2ccc(C(C)=O)cc2-c2ccc3c(c2)CCNCC3)c1 | 2.7 | 
Cc1ccnc(COc2ccc(C#N)cc2-c2ccc3c(c2)CCNCC3)c1 | 2.8 | 
Cc1ccc(-c2ncccc2OCc2ccccn2)cc1 | 4.9 | 
COc1ccc(-c2ccc3c(c2)CCNCC3)c(OCc2cc(C)ccn2)c1 | 3 | 
COc1ccc(-c2c(OC)cccc2OCc2ccccn2)cc1 | 5.8 | 
COc1cccc(OCc2cnccn2)c1-c1ccc2c(c1)CCNCC2 | 2.2 | 
CNC(=O)c1ccc(OCc2cc(C)ccn2)c(-c2ccc3c(c2)CCNCC3)c1 | 1.9 | 

The next lines start with results.

logD (physchem) | SMILES | also measured
1.9 | CC(=O)c1ccc(OCc2ccccn2)c(-c2ccc(CN)cc2)c1 | 
2.2 | CC(=O)c1ccc(OCc2ccccn2)c(-c2ccc3c(c2)CNCC3)c1 | 
2.3 | CC(=O)c1ccc(OCc2ccccn2)c(-c2ccc3c(c2)CNCCC3)c1 | 
6 | CC(=O)c1ccc(OCc2ccccn2)c(-c2cccc(C)c2)c1 | 
2.1 | CC(=O)c1ccc(OCc2ccccn2)c(-c2ccc3c(c2)CCNC3)c1 | 
4.7 | COc1ccc(-c2cc(C(C)=O)ccc2OCc2cnccn2)cc1 | 
6.4 | COc1ccc(-c2cc(F)ccc2OCc2ccccn2)cc1 | 
6.6 | COc1ccc(-c2ccc(F)cc2OCc2ccccn2)cc1 | 
6.1 | CC(=O)c1ccc(OCc2ccccn2)c(-c2ccc(C)cc2)c1 | 
6.8 | COc1ccc(-c2cc(C)ccc2OCc2ccccn2)cc1 | 
5 | CC(=O)c1ccc(OCc2ccccn2)c(-c2ccccc2)c1 | 
7 | Cc1ccc(-c2ccccc2OCc2ccccn2)cc1 | 
2.3 | CC(=O)c1ccc(OCc2ccccn2)c(-c2ccc3c(c2)CCNCC3)c1 | 
5.6 | CC(=O)c1ccc(OCc2ccccn2)c(-c2ccc(F)cc2)c1 | 
4.5 | COc1ccc(-c2cc(C(C)=O)ccc2OCc2ncccn2)cc1 | 
2.1 | CC(=O)c1ccc(OCc2ccccn2)c(-c2ccc(CCN)cc2)c1 | 
2.3 | CC(=O)c1ccc(OCc2ccccn2)c(-c2ccc3c(c2)CCCNC3)c1 | 
2.1 | CC(=O)c1ccc(OCc2ccccn2)c(-c2ccc3c(c2)CNC3)c1 | 
5.3 | COc1ccc(-c2cc(C(C)=O)ccc2OCc2ccccn2)cc1 | 
5.4 | COc1cccc(-c2cc(C(C)=O)ccc2OCc2ccccn2)c1 | 
4.5 | COc1ccc(-c2cc(C(C)=O)ccc2OCc2ccncn2)cc1 | 
4.1 | COc1ccc(-c2cc(C(C)=O)ccc2OCc2cccnn2)cc1 | 
